For one assay, the target named is T1, α2-Adrenergic receptor (Rattus norvegicus, UniProt P22909).
T1 construct: in the rat brain; from tissue; host or cells: rat brain
T1 sequence (P22909 1-465): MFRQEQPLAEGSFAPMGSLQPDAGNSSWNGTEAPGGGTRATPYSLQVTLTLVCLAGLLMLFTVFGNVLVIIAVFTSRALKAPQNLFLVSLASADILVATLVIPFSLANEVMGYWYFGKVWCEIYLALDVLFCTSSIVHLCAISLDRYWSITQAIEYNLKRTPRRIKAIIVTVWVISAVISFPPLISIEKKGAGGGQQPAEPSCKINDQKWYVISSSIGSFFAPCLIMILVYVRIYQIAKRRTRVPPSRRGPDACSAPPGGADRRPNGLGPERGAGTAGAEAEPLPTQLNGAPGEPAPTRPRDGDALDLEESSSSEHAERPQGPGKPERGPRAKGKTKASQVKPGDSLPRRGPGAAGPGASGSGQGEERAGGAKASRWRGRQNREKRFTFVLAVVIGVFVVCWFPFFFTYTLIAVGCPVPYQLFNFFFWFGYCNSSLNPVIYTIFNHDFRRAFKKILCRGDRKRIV
Description: α2-Adrenergic receptor binding (Mallard et al.). As to conditions: rat brain (title of cited method); read-out: IC50 α2. The protocol: (§1) The IC50 values of the various products which form part of this invention for the other receptors were measured according to the techniques described in the following references:
Mallard N. J., Tyacke R., Hudson A. L. and Nutt D. S. Comparative binding studies of ^3 -idazoxan and ^3 -RX821002 in the rat brain. Brit. J. Pharmacol. 102, 221P, 1991.

Another assay concerns the target T2, 5-HT2 (Rattus norvegicus, UniProt P14842).
T2 construct: from tissue
The experiment in a line: 5-HT2 receptor binding (Leysen et al.). As to conditions: 3H-ketanserine (title of cited method). The protocol:
as §1
Leysen J. E., Niemegeers C. J. E., Van Nueten J. M. and Laduron P.M. ^3 H-ketanserine (R 41468), a selective ^3 H ligand for serotonin2 receptor binding sites. Mol. Pharmacol., 21, 301-330, 1982.

A further assay addresses T3, 5-HT1C (Sus scrofa, UniProt K7GSR7).
T3 construct: serotonergic ligands to the porcine choroid plexus; from tissue; host or cells: porcine choroid plexus
T3 sequence (K7GSR7 1-457): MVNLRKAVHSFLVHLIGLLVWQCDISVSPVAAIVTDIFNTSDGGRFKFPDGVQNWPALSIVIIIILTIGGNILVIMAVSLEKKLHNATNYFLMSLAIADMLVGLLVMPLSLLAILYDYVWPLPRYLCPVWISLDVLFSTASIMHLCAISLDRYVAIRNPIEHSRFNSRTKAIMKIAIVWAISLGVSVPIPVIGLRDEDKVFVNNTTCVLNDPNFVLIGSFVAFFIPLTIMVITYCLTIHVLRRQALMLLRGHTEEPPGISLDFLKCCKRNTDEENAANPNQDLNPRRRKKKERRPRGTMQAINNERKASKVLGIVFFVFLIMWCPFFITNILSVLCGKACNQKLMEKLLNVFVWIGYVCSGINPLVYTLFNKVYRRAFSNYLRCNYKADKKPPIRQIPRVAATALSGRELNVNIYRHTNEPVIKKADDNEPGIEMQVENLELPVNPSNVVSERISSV
Description: 5-HT1C receptor binding (Pazos et al.). Details: species or system porcine. The procedure:
as §1
Pazos A., Hoyer D. and Palacios J. M. The binding sites of serotonergic ligands to the porcine choroid plexus: characterization of a new type of serotonin recognition site. Eur. J. Pharmacol., 106, 539-546, 1985.

The target in a further assay is T4, 5-HT1B (Rattus norvegicus, UniProt P28564).
T4 construct: from tissue; host or cells: rat frontal cortex
T4 sequence (P28564 whole entry): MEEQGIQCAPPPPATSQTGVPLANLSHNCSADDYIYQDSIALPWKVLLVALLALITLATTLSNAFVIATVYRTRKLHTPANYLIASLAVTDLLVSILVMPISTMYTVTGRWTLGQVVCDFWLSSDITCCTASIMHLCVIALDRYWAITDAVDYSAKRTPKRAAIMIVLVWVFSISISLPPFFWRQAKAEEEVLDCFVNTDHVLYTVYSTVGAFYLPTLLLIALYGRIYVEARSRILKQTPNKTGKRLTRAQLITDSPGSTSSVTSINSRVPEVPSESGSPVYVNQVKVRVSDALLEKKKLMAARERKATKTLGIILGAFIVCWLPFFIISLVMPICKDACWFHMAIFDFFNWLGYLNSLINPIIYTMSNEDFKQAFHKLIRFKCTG
Description: 5-HT1B receptor binding (Peroutka). The procedure:
as §1
(§2) Peroutka S. J. Pharmacological differentiation and characterization of 5-HT1A, 5-HT1B and 5-HT1C binding sites in rat frontal cortex. J. Neurochem., 45, 529-540, 1986.

The next assay deals with T5, 5-HT1A (Rattus norvegicus, UniProt P19327).
T5 construct: from tissue; host or cells: rat frontal cortex
T5 sequence (P19327 1-422): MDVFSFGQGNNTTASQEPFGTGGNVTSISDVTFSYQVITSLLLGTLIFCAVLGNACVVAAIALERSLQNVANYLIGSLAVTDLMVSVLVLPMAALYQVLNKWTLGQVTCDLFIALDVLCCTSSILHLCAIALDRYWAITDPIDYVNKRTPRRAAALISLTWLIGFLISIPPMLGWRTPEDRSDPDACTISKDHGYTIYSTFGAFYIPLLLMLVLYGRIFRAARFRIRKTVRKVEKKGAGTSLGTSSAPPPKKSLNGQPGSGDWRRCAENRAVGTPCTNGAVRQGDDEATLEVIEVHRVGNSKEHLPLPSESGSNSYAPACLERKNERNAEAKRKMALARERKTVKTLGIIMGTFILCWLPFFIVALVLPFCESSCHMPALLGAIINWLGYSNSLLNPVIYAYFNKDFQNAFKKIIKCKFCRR
The experiment in a line: 5-HT1A receptor binding (Peroutka). As to conditions: rat frontal cortex (title of cited method); mean; read-out: IC50 5-HT1A mean. The procedure: as §1, §2

A further assay concerns the target T6, D2-Dopaminergic receptor (Canis lupus familiaris, UniProt Q9GJU1).
T6 construct: from tissue
The experiment in a line: D2-Dopaminergic receptor binding (Nisnik et al.). As to conditions: 3H-YM-09159-2 (title of cited method); read-out: IC50 D2. The protocol:
as §1
Nisnik H. B., Grigoriadis D. E., Pri-Bar I., Buckman O. and Seeman P. Dopamine D2 receptors selectively labeled by a benzamide neuroleptic: ^3 H-YM-09159-2 Naunyn-Schmiedeberg's Arch. Pharmacol. 329, 333-343, 1985.

Another assay deals with 5-HT1D. The experiment in a line: Affinity for 5-HT1D receptors (3H-5-HT binding, sheep caudate nuclei membranes). As to conditions: Ratio of the IC50 values for the 5HT1A and 5HT1D receptors. The protocol:
This study is carried out according to the technique described by Herrick-Davis and Titeler (J. Neurochem. 50, 1624-1631, 1988).
Preparation of the membranes:
Sheep brains are removed at the local abattoir and transported in ice. The caudate nuclei are removed, weighed and homogenized with a Polytron for 20 sec. (speed 6-7) in 20 volumes of Tris-HCl 50 mM, pH 7.7. The homogenate is centrifuged for 10 min at 48,000 g with an L5 50E centrifuge (Beckman).
The pellet, taken up in 20 volumes of Tris-HCl 50 mM, pH 7.7, is placed in a water bath at 37° C. for 10 min and then recentrifuged for 10 min at 48,000 g. The pellet then obtained is immediately frozen in fractions containing 0.5 g of tissue.
The pellet is defrosted and homogenized with a Dounce in 80 volumes of Tris-HCl, 50 mM pH 7.7 containing 4 mM CaCl2, 10μM of pargyline and 0.1% of ascorbic acid.
Binding is carried out at 25° C. by incubating for 30 min:
0.1 ml of buffer or 10 μM, as final concentration, of sumatriptan, in order to obtain the non-specific binding, or the product which forms part of this invention at various concentrations (between 10^-10 and 10^-6 M).
0.8 ml of membrane suspension
0.1 ml of ^3 H-5-HT (15 to 30 Ci/mM, New England Nuclear France)
The incubation is brought to an end by rapid filtration through GF/B filters and rinsing with 3 times 3 ml of ice-cold buffer, using a harvester manufactured by Brandel which makes it possible to filter 48 samples. The filters are introduced into vials containing 4 ml of emulsifier-safe liquid scintillant (Packard) and the radioactivity measured with a Tri-carb 4640 counter (Packard).
The IC50 (concentration which inhibits the specific affinity by 50%) is determined graphically.

The next assay has as its target α1-Adrenergic receptor. The experiment in a line: α1-Adrenergic receptor binding (Leslie Morrow and Creese). As to conditions: rat brain (title of cited method). The protocol:
as §1
Leslie Morrow A. and Creese I. Characterization of α1-adrenergic receptor subtypes in rat brain: a reevaluation of ^3 H-WB4101 and ^3 H prazosin binding. Mol. Pharmacol. 29, 321-330, 1986.

Setting [1] is: porcine choroid plexus (title of cited method), read-out: IC50 5-HT1C.
Where [2] appears, read: rat frontal cortex (title of cited method), mean, read-out: IC50 5-HT1B mean.

Where a name gives a salt, the structure may show the parent alone. Read-outs that look alike come from different tables or passages of the source.

T6 sequence (Q9GJU1 whole entry): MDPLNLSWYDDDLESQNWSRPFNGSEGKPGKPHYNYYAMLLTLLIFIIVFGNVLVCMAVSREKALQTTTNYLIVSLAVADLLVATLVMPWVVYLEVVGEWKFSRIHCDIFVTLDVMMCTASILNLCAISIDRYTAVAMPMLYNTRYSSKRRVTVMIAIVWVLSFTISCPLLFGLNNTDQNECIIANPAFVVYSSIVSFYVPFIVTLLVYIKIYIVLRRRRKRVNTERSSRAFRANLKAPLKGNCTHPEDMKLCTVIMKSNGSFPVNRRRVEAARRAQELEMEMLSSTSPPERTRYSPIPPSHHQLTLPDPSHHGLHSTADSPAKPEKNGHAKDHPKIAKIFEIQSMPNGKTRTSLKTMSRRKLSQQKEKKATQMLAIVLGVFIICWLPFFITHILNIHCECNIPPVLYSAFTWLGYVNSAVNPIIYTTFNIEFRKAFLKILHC
T2 sequence (P14842 whole entry): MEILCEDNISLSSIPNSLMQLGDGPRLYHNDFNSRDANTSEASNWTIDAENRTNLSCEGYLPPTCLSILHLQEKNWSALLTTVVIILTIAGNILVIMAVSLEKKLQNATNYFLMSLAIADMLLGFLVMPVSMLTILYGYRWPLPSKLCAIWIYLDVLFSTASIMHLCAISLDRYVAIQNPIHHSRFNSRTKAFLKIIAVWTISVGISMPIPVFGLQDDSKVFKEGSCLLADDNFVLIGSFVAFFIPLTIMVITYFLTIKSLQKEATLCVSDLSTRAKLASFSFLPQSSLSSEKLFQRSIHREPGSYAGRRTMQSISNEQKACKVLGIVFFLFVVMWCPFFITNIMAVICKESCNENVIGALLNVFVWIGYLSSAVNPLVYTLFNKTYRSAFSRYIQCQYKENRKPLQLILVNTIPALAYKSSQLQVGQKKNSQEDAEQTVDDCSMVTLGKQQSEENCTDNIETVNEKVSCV

With `NCCc1c[nH]c2ccc(OC(C(=O)N3CCN(c4cccc5ccccc45)CC3)c3ccccc3)cc12` (stereo not drawn) [Example 10, 4-Naphthyl-1-[tryptamine-5-O-(α-phenylcarboxymethyl)]piperazide hydrochloride], the 50% inhibitory concentration (IC50) is above 1000 nM on α2-Adrenergic receptor; above 1000 nM at 5-HT2; above 1000 nM at 5-HT1C (setting [1]); 335 nM at 5-HT1B (setting [2]); 465 nM at 5-HT1A; above 1000 nM on D2-Dopaminergic receptor. This molecule showed an IC50 on α1-Adrenergic receptor above 1000 nM. Further, the “Ratio 1A/1D” value in the assay on 5-HT1D turned out to be 0.7.
For `Cc1ccccc1N1CCN(C(=O)C(Oc2ccc3[nH]cc(CCN)c3c2)c2ccccc2)CC1` (stereo not drawn) [Example 9, 4-O-Tolyl-1-[tryptamine-5-O-(α-phenylcarboxymethyl)]piperazide hydrochloride], the IC50 on α2-Adrenergic receptor was above 1000 nM; at 5-HT2, 550 nM; on 5-HT1C (setting [1]), 600 nM; on 5-HT1B (setting [2]) it was 85 nM; at 5-HT1A it was 325 nM; at D2-Dopaminergic receptor, above 1000 nM. This molecule also registered a 50% inhibitory concentration (IC50) on α1-Adrenergic receptor above 1000 nM. Also, the “Ratio 1A/1D” value in the assay on 5-HT1D stood at 1.7.
For `COc1cccc(N2CCN(C(=O)COc3ccc4[nH]cc(CCNC(=O)OC(C)(C)C)c4c3)CC2)c1` [Example 6A, 4-(m-Methoxyphenyl)-1-(tert-butoxycarbamate-tryptamine-5-carboxymethyl)piperazide hydrochloride], the IC50 at α2-Adrenergic receptor was above 1000 nM; on 5-HT2, above 1000 nM; at 5-HT1C (setting [1]) it was above 1000 nM; on 5-HT1B (setting [2]), 1.5 nM; on 5-HT1A, 100 nM; at D2-Dopaminergic receptor it was above 1000 nM. This molecule gave an IC50 at α1-Adrenergic receptor above 1000 nM. Also, in the assay with 5-HT1D, the “Ratio 1A/1D” value was found to be 6.3.
On to `Cc1cccc(N2CCN(C(=O)COc3ccc4[nH]cc(CCNC(=O)OC(C)(C)C)c4c3)CC2)c1C` [Example 5A, 4-(2,3 -Xylyl)-1-(tert-butoxycarbamate-tryptamine-5-O-carboxymethyl)piperazide hydrochloride], for which the IC50 is above 1000 nM at α2-Adrenergic receptor; above 1000 nM on 5-HT2; 1000 nM on 5-HT1C (setting [1]); 1 nM on 5-HT1B (setting [2]); 34.5 nM on 5-HT1A; above 1000 nM at D2-Dopaminergic receptor. This molecule also returned an IC50 at α1-Adrenergic receptor above 1000 nM. The “Ratio 1A/1D” value with 5-HT1D was 17.3.
`Cc1ccccc1N1CCN(C(=O)COc2ccc3[nH]cc(CCNC(=O)OC(C)(C)C)c3c2)CC1` [ID, 4-o-Tolyl-1-(tert-butoxycarbamate-tryptamine-5-O-carboxymethyl) piperazide hydrochloride]: the IC50 on α2-Adrenergic receptor was 7000 nM; at 5-HT2, 2000 nM; on 5-HT1A, 120 nM; at D2-Dopaminergic receptor it was above 100 nM; at α1-Adrenergic receptor, 8500 nM. The “Ratio 1A/1D” value with 5-HT1D was 18.5.
For the molecule `CSc1ccc2c(c1)C(N1CCN(C(=O)COc3ccc4[nH]cc(CCNC(=O)OC(C)(C)C)c4c3)CC1)Cc1ccccc1S2` (stereo not shown) [Example 8, 1-[(tert-Butoxycarbamate)tryptamine-5-O-carboxymethyl]-4-[10-(8-methylthio-10-11-dihydrodibenzo[b, f]thiepine)]piperazide hydrochloride], the IC50 at 5-HT1B (setting [2]) was 1000 nM; on 5-HT1A it was above 1000 nM.
Turning to `Cc1cccc(N2CCN(C(=O)COc3ccc4[nH]cc(CCN)c4c3)CC2)c1C` [Example 5, 4-(2,3-Xylyl)-1-(tryptamine-5-O-carboxymethyl) piperazide hydrochloride], the IC50 is above 1000 nM on α2-Adrenergic receptor; above 1000 nM on 5-HT2; above 1000 nM on 5-HT1C; 6 nM at 5-HT1B; 240 nM at 5-HT1A; above 1000 nM on D2-Dopaminergic receptor. This molecule also yielded a half-inhibitory concentration (IC50) on α1-Adrenergic receptor above 1000 nM. Also, the “Ratio 1A/1D” value with 5-HT1D is given as 8.2.
For `CN1CCN(C(=O)COc2ccc3[nH]cc(CCN)c3c2)CC1` [Example 7, 4-Methyl-1-(tryptamine-5-O-carboxymethyl)piperazide hydrochloride], the IC50 was above 1000 nM at α2-Adrenergic receptor; above 1000 nM at 5-HT2; above 1000 nM on 5-HT1C; 355 nM on 5-HT1B (setting [2]); above 1000 nM on 5-HT1A; above 1000 nM on D2-Dopaminergic receptor. Further, the IC50 at α1-Adrenergic receptor is above 1000 nM. Moreover, the “Ratio 1A/1D” value with 5-HT1D is on record as above 1.4.
As to `Cc1ccccc1N1CCN(C(=O)C(C)Oc2ccc3[nH]cc(CCN)c3c2)CC1` (stereo not drawn) [Example 11, 4-o-Tolyl-1-[tryptamine-5-O-(α-methylcarboxymethyl)]piperazide hydrochloride], the IC50 is above 1000 nM on 5-HT2, 1000 nM on 5-HT1C, 5.5 nM on 5-HT1B and 125 nM on 5-HT1A. Moreover, the “Ratio 1A/1D” value with 5-HT1D worked out at 20.8.
